# Test results reported in PubChem BioAssay AID1259407 (Chemical Carcinogenesis Research Information System (CCRIS), 2018).
# Calls of active or inactive are those of the source. No rule for the calls is given here.
# Tested on: CCRIS mutagenicity, Ames/micronucleus/aberration tests
# Experiment: CCRIS mutagenicity studies
# [1] = Test System: AMES SALMONELLA TYPHIMURIUM, Strain/Indicator: TA97, Metabolic Activation: NONE, Method: PREINCUBATION
# [2] = Test System: AMES SALMONELLA TYPHIMURIUM, Strain/Indicator: TA98, Metabolic Activation: NONE, Method: PREINCUBATION
# [3] = Test System: AMES SALMONELLA TYPHIMURIUM, Strain/Indicator: TA100, Metabolic Activation: NONE, Method: PREINCUBATION
# [4] = Test System: AMES SALMONELLA TYPHIMURIUM, Strain/Indicator: TA1535, Metabolic Activation: NONE, Method: PREINCUBATION
# [5] = Test System: AMES SALMONELLA TYPHIMURIUM, Strain/Indicator: TA98, Metabolic Activation: RAT LIVER S-9, PHENOBARBITAL AND BETA-NAPHTHOFLAVONE, Method: PREINCUBATION
# [6] = Test System: AMES SALMONELLA TYPHIMURIUM, Strain/Indicator: TA100, Metabolic Activation: RAT LIVER S-9, PHENOBARBITAL AND BETA-NAPHTHOFLAVONE, Method: PREINCUBATION
# [7] = Test System: AMES SALMONELLA TYPHIMURIUM, Strain/Indicator: TA1535, Metabolic Activation: RAT LIVER S-9, PHENOBARBITAL AND BETA-NAPHTHOFLAVONE, Method: PREINCUBATION
# [8] = Test System: AMES SALMONELLA TYPHIMURIUM, Strain/Indicator: TA1537, Metabolic Activation: NONE, Method: PREINCUBATION
# [9] = Test System: AMES SALMONELLA TYPHIMURIUM, Strain/Indicator: TA1537, Metabolic Activation: RAT LIVER S-9, PHENOBARBITAL AND BETA-NAPHTHOFLAVONE, Method: PREINCUBATION
# [10] = Test System: AMES SALMONELLA TYPHIMURIUM, Strain/Indicator: TA1538, Metabolic Activation: NONE, Method: PREINCUBATION
smiles,measurement,setting,value
C=C(C)c1ccccc1,mutagenic call,"End Point: In vitro chromosomal aberrations, Test System: Chinese Hamster ovary (CHO) cells, Metabolic Activation: None",inactive; negative
same,mutagenic call,"End Point: In vitro chromosomal aberrations, Test System: Chinese Hamster ovary (CHO) cells, Metabolic Activation: Rat, Liver, S-9, Aroclor 1254",inactive; negative
same,mutagenic call,"End Point: In vivo micronucleus, Test System: Peripheral blood normochromatic erythrocytes, Species: Mouse, Strain/Sex: B6C3F1/ Female, Route: Inhalation",active; positive
same,mutagenic call,"End Point: In vivo micronucleus, Test System: Peripheral blood normochromatic erythrocytes, Species: Mouse, Strain/Sex: B6C3F1/ Male, Route: Inhalation",active; positive
same,mutagenic call,"Test System: AMES SALMONELLA TYPHIMURIUM, Strain/Indicator: TA97, Metabolic Activation: HAMSTER, LIVER, S-9, AROCLOR 1254 (10 OR 30%), Method: PREINCUBATION",inactive; negative
same,mutagenic call,[1],inactive; negative
same,mutagenic call,"Test System: AMES SALMONELLA TYPHIMURIUM, Strain/Indicator: TA97, Metabolic Activation: RAT, LIVER, S-9, AROCLOR 1254 (10 OR 30%), Method: PREINCUBATION",inactive; negative
same,mutagenic call,"Test System: AMES SALMONELLA TYPHIMURIUM, Strain/Indicator: TA98, Metabolic Activation: HAMSTER, LIVER, S-9, AROCLOR 1254 (10%), Method: PREINCUBATION",inactive; negative
same,mutagenic call,"Test System: AMES SALMONELLA TYPHIMURIUM, Strain/Indicator: TA98, Metabolic Activation: HAMSTER, LIVER, S-9, AROCLOR 1254 (30%), Method: PREINCUBATION",inactive; negative
same,mutagenic call,[2],inactive; negative
same,mutagenic call,"Test System: AMES SALMONELLA TYPHIMURIUM, Strain/Indicator: TA98, Metabolic Activation: RAT, LIVER, S-9, AROCLOR 1254 (10%), Method: PREINCUBATION",inactive; negative
same,mutagenic call,"Test System: AMES SALMONELLA TYPHIMURIUM, Strain/Indicator: TA98, Metabolic Activation: RAT, LIVER, S-9, AROCLOR 1254 (30%), Method: PREINCUBATION",inactive; negative
same,mutagenic call,"Test System: AMES SALMONELLA TYPHIMURIUM, Strain/Indicator: TA100, Metabolic Activation: HAMSTER, LIVER, S-9, AROCLOR 1254 (10%), Method: PREINCUBATION",inactive; negative
same,mutagenic call,"Test System: AMES SALMONELLA TYPHIMURIUM, Strain/Indicator: TA100, Metabolic Activation: HAMSTER, LIVER, S-9, AROCLOR 1254 (30%), Method: PREINCUBATION",inactive; negative
same,mutagenic call,[3],inactive; negative
same,mutagenic call,"Test System: AMES SALMONELLA TYPHIMURIUM, Strain/Indicator: TA100, Metabolic Activation: RAT, LIVER, S-9, AROCLOR 1254 (10%), Method: PREINCUBATION",inactive; negative
same,mutagenic call,"Test System: AMES SALMONELLA TYPHIMURIUM, Strain/Indicator: TA100, Metabolic Activation: RAT, LIVER, S-9, AROCLOR 1254 (30%), Method: PREINCUBATION",inactive; negative
same,mutagenic call,"Test System: AMES SALMONELLA TYPHIMURIUM, Strain/Indicator: TA1535, Metabolic Activation: HAMSTER, LIVER, S-9, AROCLOR 1254 (10 OR 30%), Method: PREINCUBATION",inactive; negative
same,mutagenic call,[4],inactive; negative
same,mutagenic call,"Test System: AMES SALMONELLA TYPHIMURIUM, Strain/Indicator: TA1535, Metabolic Activation: RAT, LIVER, S-9, AROCLOR 1254 (10 OR 30%), Method: PREINCUBATION",inactive; negative
O=C(O)[C@H](O)[C@@H](O)C(=O)O,mutagenic call,"End Point: IN VIVO MICRONUCLEUS, Test System: BONE MARROW POLYCHROMATIC ERYTHROCYTES, Species: MOUSE, Strain/Sex: DDY/MALE, Route: IP",inactive; negative; authors report chemical name as sodium d-tartrate with cas number of s
same,mutagenic call,[1],inactive; negative
same,mutagenic call,"Test System: AMES SALMONELLA TYPHIMURIUM, Strain/Indicator: TA97, Metabolic Activation: RAT, LIVER, S-9, AROCLOR 1254, Method: PREINCUBATION",inactive; negative
same,mutagenic call,[2],inactive; negative
same,mutagenic call,"Test System: AMES SALMONELLA TYPHIMURIUM, Strain/Indicator: TA98, Metabolic Activation: NONE, Method: STANDARD PLATE",inactive; negative
same,mutagenic call,[5],inactive; negative
same,mutagenic call,"Test System: AMES SALMONELLA TYPHIMURIUM, Strain/Indicator: TA98, Metabolic Activation: RAT, LIVER, S-9, AROCLOR 1254, Method: STANDARD PLATE",inactive; negative
same,mutagenic call,[3],inactive; negative
same,mutagenic call,"Test System: AMES SALMONELLA TYPHIMURIUM, Strain/Indicator: TA100, Metabolic Activation: NONE, Method: STANDARD PLATE",inactive; negative
same,mutagenic call,[6],inactive; negative
same,mutagenic call,"Test System: AMES SALMONELLA TYPHIMURIUM, Strain/Indicator: TA100, Metabolic Activation: RAT, LIVER, S-9, AROCLOR 1254, Method: STANDARD PLATE",inactive; negative
same,mutagenic call,"Test System: AMES SALMONELLA TYPHIMURIUM, Strain/Indicator: TA102, Metabolic Activation: NONE, Method: PREINCUBATION",inactive; negative
same,mutagenic call,"Test System: AMES SALMONELLA TYPHIMURIUM, Strain/Indicator: TA102, Metabolic Activation: RAT, LIVER, S-9, AROCLOR 1254, Method: PREINCUBATION",inactive; negative
same,mutagenic call,[4],inactive; negative
same,mutagenic call,"Test System: AMES SALMONELLA TYPHIMURIUM, Strain/Indicator: TA1535, Metabolic Activation: NONE, Method: STANDARD PLATE",inactive; negative
same,mutagenic call,[7],inactive; negative
same,mutagenic call,"Test System: AMES SALMONELLA TYPHIMURIUM, Strain/Indicator: TA1535, Metabolic Activation: RAT, LIVER, S-9, AROCLOR 1254, Method: STANDARD PLATE",inactive; negative
same,mutagenic call,[8],inactive; negative
same,mutagenic call,"Test System: AMES SALMONELLA TYPHIMURIUM, Strain/Indicator: TA1537, Metabolic Activation: NONE, Method: STANDARD PLATE",inactive; negative
same,mutagenic call,[9],inactive; negative
same,mutagenic call,"Test System: AMES SALMONELLA TYPHIMURIUM, Strain/Indicator: TA1537, Metabolic Activation: RAT, LIVER, S-9, AROCLOR 1254, Method: STANDARD PLATE",inactive; negative
same,mutagenic call,"Test System: AMES SALMONELLA TYPHIMURIUM, Strain/Indicator: TA1538, Metabolic Activation: NONE, Method: STANDARD PLATE",inactive; negative
same,mutagenic call,"Test System: AMES SALMONELLA TYPHIMURIUM, Strain/Indicator: TA1538, Metabolic Activation: RAT, LIVER, S-9, AROCLOR 1254, Method: STANDARD PLATE",inactive; negative
same,mutagenic call,"Test System: E. COLI, Strain/Indicator: WP2, Metabolic Activation: NONE, Method: STANDARD PLATE",inactive; negative
same,mutagenic call,"Test System: E. COLI, Strain/Indicator: WP2, Metabolic Activation: RAT, LIVER, S-9, AROCLOR 1254, Method: STANDARD PLATE",inactive; negative
same,mutagenic call,"Test System: E.COLI, Strain/Indicator: WP2UVRA/PKM101, Metabolic Activation: NONE, Method: PREINCUBATION",inactive; negative
same,mutagenic call,"Test System: E.COLI, Strain/Indicator: WP2UVRA/PKM101, Metabolic Activation: RAT LIVER S-9, PHENOBARBITAL AND BETA-NAPHTHOFLAVONE, Method: PREINCUBATION",inactive; negative
O=C(O)Cc1ccccc1[N+](=O)[O-],mutagenic call,[2],inactive; negative
same,mutagenic call,[3],active; positive
same,mutagenic call,[4],active; positive
same,mutagenic call,[8],inactive; negative
same,mutagenic call,[10],active; positive
CC(C)(c1ccccc1)c1ccc(O)cc1,mutagenic call,[2],inactive; negative
same,mutagenic call,[5],inactive; negative
same,mutagenic call,[3],inactive; negative
same,mutagenic call,[6],inactive; negative
same,mutagenic call,[4],inactive; negative
same,mutagenic call,[7],inactive; negative
same,mutagenic call,[8],inactive; negative
same,mutagenic call,[9],inactive; negative
same,mutagenic call,[10],inactive; negative
same,mutagenic call,"Test System: AMES SALMONELLA TYPHIMURIUM, Strain/Indicator: TA1538, Metabolic Activation: RAT LIVER S-9, PHENOBARBITAL AND BETA-NAPHTHOFLAVONE, Method: PREINCUBATION",inactive; negative
same,mutagenic call,"Test System: E.COLI, Strain/Indicator: WP2UVRA, Metabolic Activation: NONE, Method: PREINCUBATION",inactive; negative
same,mutagenic call,"Test System: E.COLI, Strain/Indicator: WP2UVRA, Metabolic Activation: RAT LIVER S-9, PHENOBARBITAL AND BETA-NAPHTHOFLAVONE, Method: PREINCUBATION",inactive; negative
